Assay results reported in patent US7795255B2, “Rigidified compounds for modulating heparanase activity” (InSight Biopharmaceuticals Ltd., priority 2005, dated 2010).

Experiments:
[1] = target: T1, recombinant human pro-heparanase (H60) (Homo sapiens, UniProt Q9Y251); test: Pro-heparanase (H60) activation in a cell-based assay; details: inhibition of pro-heparanase activation in CHO cells; NI = no inhibition
T1 construct: Heparanase maturation involves the removal of the signal peptide, transforming the 65 kDa pre-pro-heparanase into a 60 kDa pro-heparanase; made in house
T1 sequence (Q9Y251 36-543): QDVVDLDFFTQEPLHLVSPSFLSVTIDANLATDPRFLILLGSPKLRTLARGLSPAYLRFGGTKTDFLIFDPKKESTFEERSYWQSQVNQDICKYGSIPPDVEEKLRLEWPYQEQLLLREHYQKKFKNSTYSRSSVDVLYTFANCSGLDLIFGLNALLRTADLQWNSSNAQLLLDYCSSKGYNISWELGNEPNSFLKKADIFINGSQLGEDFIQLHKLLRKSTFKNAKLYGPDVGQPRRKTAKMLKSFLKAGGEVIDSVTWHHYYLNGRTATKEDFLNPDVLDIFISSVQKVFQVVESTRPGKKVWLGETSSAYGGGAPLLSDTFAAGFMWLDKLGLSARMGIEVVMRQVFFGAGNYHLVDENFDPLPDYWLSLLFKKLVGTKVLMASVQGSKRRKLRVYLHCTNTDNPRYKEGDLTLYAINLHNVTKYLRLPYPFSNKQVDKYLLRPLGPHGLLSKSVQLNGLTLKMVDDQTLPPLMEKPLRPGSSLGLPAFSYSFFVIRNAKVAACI
Description: Pro-heparanase (H60) activation in a cell-based assay: Chinese hamster ovary (CHO) cells were grown in complete F12 medium supplemented with 10% fetal calf serum (FCS). […] The plates were incubated for 24 hours in a 37° C. humidified incubator with 5% CO2. […] The plates were further incubated for additional 4 hours. The pro-heparanase was allowed to internalize by the cells and further processed to generate the active 53 kDa heparanase. At the end of the incubation, the cells were lysed by three consecutive cycles of freezing and thawing in a −80° C. freezer and a 37° C. shaker.
The rigidified compounds described herein were tested for inhibition of pro-heparanase activation in the cell-based assay described above.

[2] = target: T2, heparanase (H53) (Homo sapiens, UniProt Q9Y251); test: Heparanase (H53) assay (DMB assay); type: biochemical; details: for dual activity: inhibition of pro-heparanase activation (H60) and of heparanase activity (H53): compounds with an acidic group; for IC50: inhibition of heparanase activity, DMB assay, NI = no inhibition
T2 construct: The 45 kDa major subunit and the 8 kDa small subunit hetero-complex to form the 53 kDa active form of heparanase
T2 sequence (Q9Y251 36-109 limits assumed): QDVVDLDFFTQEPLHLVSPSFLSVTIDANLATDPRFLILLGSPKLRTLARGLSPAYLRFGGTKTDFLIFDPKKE
T2 sequence (Q9Y251 158-543 limits assumed): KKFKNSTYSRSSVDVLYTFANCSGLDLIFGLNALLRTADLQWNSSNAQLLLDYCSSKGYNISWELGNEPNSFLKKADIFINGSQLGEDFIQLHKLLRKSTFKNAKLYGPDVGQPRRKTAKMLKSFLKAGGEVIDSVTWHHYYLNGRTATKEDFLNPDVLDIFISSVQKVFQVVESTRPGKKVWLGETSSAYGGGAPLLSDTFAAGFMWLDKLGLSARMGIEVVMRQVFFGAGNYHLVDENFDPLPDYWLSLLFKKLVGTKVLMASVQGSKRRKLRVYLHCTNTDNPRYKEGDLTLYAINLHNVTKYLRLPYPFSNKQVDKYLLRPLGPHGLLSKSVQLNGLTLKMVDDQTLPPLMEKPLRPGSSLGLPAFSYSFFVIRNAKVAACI
Description: Heparanase (H53) assay: The rigidified compounds described herein were tested for inhibition of heparanase activity in the DMB assay described in U.S. Pat. No. 6,190,875. IC50 was calculated from inhibition curves of all active compounds.

[3] = target: T3, vascular endothelial growth factor (VEGF) (Homo sapiens, UniProt P15692); test: ELISA for determination of binding of VEGF to heparin; details: for IC50: inhibition of VEGF binding to heparin, NI = no inhibition; for inhibition of VEGF binding to heparin: inhibition towards both growth factors
T3 sequence (P15692 27-191 isoform P15692-4): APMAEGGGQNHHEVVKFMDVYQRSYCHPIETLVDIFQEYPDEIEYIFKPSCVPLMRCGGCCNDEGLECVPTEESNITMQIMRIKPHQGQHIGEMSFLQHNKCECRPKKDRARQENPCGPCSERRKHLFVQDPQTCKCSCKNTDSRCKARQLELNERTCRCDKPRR
Description: Enzyme-linked immunosorbent assay (ELISA) for determination of binding of vascular endothelial growth factor (VEGF) to heparin: 96-well microplates were coated for 2 hours. at 23-25° C. with 5 μg/ml heparin-albumin (Rimon Biotech) and blocked with 1% bovine serum albumin (BSA) in phosphate buffer (PBS) with 0.05% Tween and 0.01% thimerosal for 2 hours. VEGF was added to the plates at a concentration of 10 ng/ml and the plates were thereafter incubated for 45 minutes at 23-25° C. The amount of VEGF bound to heparin was detected using anti-VEGF monoclonal antibody (Sigma Cat. No. V4758) at a concentration of 0.26 μg/ml and secondary antibodies Sheep anti-mouse IgG linked to horseradish peroxidase (1:2000) using 3,3′,5,5′-tetramethylbenzidine (TMB, Pierce Cat. No. 34021) as a substrate for peroxidase. The plates were read at 450 nm with a reference wavelength of 630 nm using a VERSAmax plate reader. […] Percent inhibition was calculated as compared with a control pre-incubated with a solution of 1% DMSO and the results are presented in Table 3 below.

[4] = target: β-FGF (Homo sapiens, UniProt P09038); test: ELISA for determination of binding of β-FGF to heparin; details: for IC50: inhibition of β-FGF binding to heparin, NI = no inhibition; for inhibition of β-FGF binding to heparin: inhibition towards both growth factors
Description: ELISA for determination of binding of β-FGF to heparin: 96-well microplates were coated for 2 hours at 23-25° C. with 5 μg/ml heparin-albumin (Rimon Biotech) and blocked with 1% BSA in PBS, with 0.05% Tween, and 0.01% thimerosal for 2 hours. β-FGF was added to the plates at a concentration of 10 ng/ml and plates were incubated for 45 minutes at 23-25° C. The amount of β-FGF bound to heparin was detected using anti-FGF monoclonal antibody (Sigma Cat. No. F6162) at a concentration of 2.5 ng/ml and secondary antibodies Sheep anti-mouse IgG linked to horseradish peroxidase (1:3000) TMB (Pierce Cat. No. 34021) was used as a substrate for peroxidase. The plates were read at 450 nm with a reference wavelength of 630 nm using a VERSAmax plate reader.

[5] = test system: MDA-MB231 breast cancer cells; test: In-vitro assay for inhibition of cell invasion (MDA-MB231); type: cell-based; details: Homo sapiens; MB231 cells (first value of cell); read-out: IC50 Invasion MB231/PC3/A375
Description: (§1) In-vitro assay for inhibition of cell invasion: The ability of the rigidified compounds described herein to inhibit cell invasion was determined quantitatively using BD Biocoat FluoroBlok Invasion System (BD, cat No. FAL354165). MDA-MB231 breast cancer cells, human prostatic cancer PC3 cells and A375 melanoma cells were used for this assay. Cells (5×10^4 cells/ml) were pre-incubated with the compounds for 48 hours prior to the assay, at 37° C. and a 5% CO2 atmosphere.
(§2) Serial dilutions of each compound starting from a concentration which was previously found to be non-toxic to the cells (using Oxygen Biosensor System, BD), were prepared in DMSO and added to the cells to a final concentration of 1% DMSO. At the end of the pre-incubation, cells at each compound concentration were counted and 2×10^4 cells/well in basic medium were applied onto the top chamber of the insert of the Invasion system. 750 μl complete medium with 5% fetal calf serum was added to the bottom chambers. The tested compound was applied to the top and bottom chambers. Invasion plates were incubated for 22 hours at 37° C. and a 5% CO2 atmosphere.
At the end of the incubation, medium was aspirated from the upper chambers and the inserts were transferred to a plate containing Calcein AM (Molecular Probes), 4 μg/ml and incubated for 90 minutes at 37° C. and a 5% CO2 atmosphere.
(§3) Fluorescence of invaded cells was read in a fluorescence plate reader BMG POLARstar Galaxy, BMG at excitation/emission wavelength of 485/530 nm.

[6] = test system: human prostatic cancer PC3 cells; test: In-vitro assay for inhibition of cell invasion (PC3); type: cell-based; details: PC-3, PC3 cells (second value of cell), read-out: IC50 Invasion MB231/PC3/A375
Description: as §1
as §2, with “atmosphere. […]” for “atmosphere.”
as §3

Chain of β-FGF (P09038 143-288): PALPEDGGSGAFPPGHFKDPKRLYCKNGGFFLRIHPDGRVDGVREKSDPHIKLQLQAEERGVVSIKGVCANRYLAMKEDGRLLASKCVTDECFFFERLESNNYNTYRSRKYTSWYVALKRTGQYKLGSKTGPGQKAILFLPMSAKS

Compound | IC50 [1] [µM] | dual activity: inhibition of pro-heparanase activation (H60) and of heparanase activity (H53) [2] | IC50 [2] [µM] | IC50 [3] [µM] | IC50 [4] [µM] | IC50 [5] [µM] | inhibition of VEGF binding to heparin [3] | inhibition of β-FGF binding to heparin [4] | IC50 [6] [µM]
O=C(O)CCCN1C(=O)c2cc3oc(-c4ccc([N+](=O)[O-])cc4)cc3n2C1=S [Compound 2, 4-[2-(4-nitro-phenyl)-6-oxo-4-thioxo-6H-1-oxa-3b,5-diaza-cyclopenta[a]pentalen-5-yl]-butyric acid] | 1 | dual activity | 9 | 1.8 | 1.7 | 2.6 |  |  | 
O=C(O)CCCN1C(=O)c2cc3oc(-c4ccc(Cl)cc4)cc3n2C1=S [Compound 5, 4-[2-(4-chloro-phenyl)-6-oxo-4-thioxo-6H-1-oxa-3b,5-diaza-cyclopenta[a]pentalen-5-yl]-butyric acid] | 1 | dual activity | 11.8 | 6 | 2.1 |  |  |  | 
CN(CC(=O)O)C(=O)CC(C)(C)CN1C(=O)c2cc3oc(-c4ccc(Cl)cc4)cc3n2C1=S [Compound 21, ({4-[2-(4-Chloro-phenyl)-6-oxo-4-thioxo-6H-1-oxa-3b,5-diaza-cyclopenta[a]pentalen-5-yl]-3,3-dimethyl-butyryl}-methyl-amino)-acetic acid] | 1 | dual activity | 66.2 | 7.3 | 6.5 |  |  |  | 
CC(C)(CC(=O)N1CCC[C@@H]1C(=O)O)CN1C(=O)c2cc3oc(-c4ccc(Cl)cc4)cc3n2C1=S [Compound 23, 1-{4-[2-(4-Chloro-phenyl)-6-oxo-4-thioxo-6H-1-oxa-3b,5-diaza-cyclopenta[a]pentalen-5-yl]-3,3-dimethyl-butyryl}-pyrrolidine-2-carboxylic acid] | 0.82 | dual activity |  | 9.3 | 7.9 |  |  |  | 

The next lines start with the values.

IC50 [1] [µM] | dual activity: inhibition of pro-heparanase activation (H60) and of heparanase activity (H53) [2] | IC50 [2] [µM] | IC50 [3] [µM] | IC50 [4] [µM] | IC50 [5] [µM] | inhibition of VEGF binding to heparin [3] | inhibition of β-FGF binding to heparin [4] | IC50 [6] [µM] | Compound
1.2 |  |  | 0.16 | 0.15 | 0.17 | sub-micromolar | sub-micromolar |  | CCN(CC)C(=O)CCCN1C(=O)c2cc3oc(-c4ccc(Cl)cc4)cc3n2C1=S [Compound 6, 4-[2-(4-chloro-phenyl)-6-oxo-4-thioxo-6H-1-oxa-3b,5-diaza-cyclopenta[a]pentalen-5-yl]-N,N-diethyl-butyramide]
0.27 | dual activity | 37 | 1.2 | 1.8 | 0.75 |  |  | 1.4 | CC(C)(CC(=O)O)CN1C(=O)c2cc3oc(-c4ccc(Cl)cc4)cc3n2C1=S [Compound 11, 4-[2-(4-chloro-phenyl)-6-oxo-4-thioxo-6H-1-oxa-3b,5-diaza-cyclopenta[a]pentalen-5-yl]-3,3-dimethyl-butyric acid]
0.09 |  |  | 0.29 | 0.2 | 0.035 | sub-micromolar | sub-micromolar |  | CN1CCN(C(=O)CC(C)(C)CN2C(=O)c3cc4oc(-c5ccc(Cl)cc5)cc4n3C2=S)CC1 [Compound 16, 2-(4-Chloro-phenyl)-5-[2,2-dimethyl-4-(4-methyl-piperazin-1-yl)-4-oxo-butyl]-4-thioxo-4,5-dihydro-1-oxa-3b,5-diaza-cyclopenta[a]pentalen-6-one]
0.78 |  | 10.2 | 4.8 | 1.7 |  |  |  |  | O=C(O)CCCN1C(=O)c2cc3oc(-c4cccc(C(F)(F)F)c4)cc3n2C1=S [Compound 26]
0.56 |  | 74 | 0.07 | 0.28 |  | sub-micromolar | sub-micromolar |  | CCOC(=O)CCCN1C(=O)c2cc3sc(-c4ccc([N+](=O)[O-])cc4)cc3n2C1=S [Compound 31, 4-[2-(4-nitro-phenyl)-6-oxo-4-thioxo-6H-1-thia-3b,5-diaza-cyclopenta[a]pentalen-5-yl]-butyric acid ethyl ester]
0.7 |  | 27 |  |  |  |  |  |  | O=C(O)CCCN1C(=O)c2cc3sc(-c4ccc([N+](=O)[O-])cc4)cc3n2C1=S [Compound 32, 4-[2-(4-Nitro-phenyl)-6-oxo-4-thioxo-6H-1-thia-3b,5-diaza-cyclopenta[a]pentalen-5-yl]-butyric acid]
